Key:
[1] = target: plasmin (Homo sapiens, UniProt P00747); experiment: anti-plasmin activity, hydrolysis of TAME (tosylarginine methyl ester); type: biochemical; settings: hydrolysis of TAME; read-out: Pla: molar concentration inhibiting 50% of enzyme activity (IC50)
Protocol: (§1) The values in Table 1 represent molar concentrations (IC50) of test compounds which inhibit 50% of the activity of each enzyme to hydrolyze TAME (tosylarginine methyl ester). The anti-trypsin, anti-plasmin, anti-kallikrein and anti-thrombin activities were determined according to the method of Muramatsu et al. (J. Biochem. (1965), volume 58, page 214).

[2] = Toxicity in humans (Phase I study); type: in vivo, human; settings: healthy male adult volunteers, capsules, 5 to 400 mg/man
Protocol: Toxicity in humans (Phase I study): This test was for confirmation of the safety of the drug (which was administered to healthy male adult volunteers). Taking into consideration the above toxicity tests, the compound of Example 22 was prepared in the form of capsules containing the compound in an increasing amount (from 5 mg/man to 400 mg/man (body weight 50-60 kg)).

[3] = target: T1, C1s (Homo sapiens, UniProt P09871); experiment: anti-complement (anti-C1 esterase) activity, C1s hydrolysis of ATEE (acetyltyrosine ethyl ester); type: biochemical
T1 sequence (P09871 16-688): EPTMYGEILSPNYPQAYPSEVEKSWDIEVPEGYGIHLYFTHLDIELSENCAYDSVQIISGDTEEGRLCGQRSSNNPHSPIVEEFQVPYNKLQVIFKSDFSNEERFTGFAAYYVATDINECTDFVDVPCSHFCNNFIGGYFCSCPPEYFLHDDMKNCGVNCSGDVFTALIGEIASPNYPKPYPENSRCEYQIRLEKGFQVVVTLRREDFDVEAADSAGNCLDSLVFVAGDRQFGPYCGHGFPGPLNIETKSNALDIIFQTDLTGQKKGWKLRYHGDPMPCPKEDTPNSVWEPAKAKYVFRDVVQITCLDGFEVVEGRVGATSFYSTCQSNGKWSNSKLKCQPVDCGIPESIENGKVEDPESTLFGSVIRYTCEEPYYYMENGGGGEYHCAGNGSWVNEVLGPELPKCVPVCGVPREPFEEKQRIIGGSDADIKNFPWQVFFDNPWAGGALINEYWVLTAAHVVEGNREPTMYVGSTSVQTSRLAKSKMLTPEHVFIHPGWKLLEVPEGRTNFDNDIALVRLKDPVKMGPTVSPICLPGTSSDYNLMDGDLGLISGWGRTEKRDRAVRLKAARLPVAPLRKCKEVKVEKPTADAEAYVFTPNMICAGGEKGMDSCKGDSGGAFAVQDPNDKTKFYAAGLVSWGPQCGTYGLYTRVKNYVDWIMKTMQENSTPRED
Protocol: The anti-C1 esterase (C1r, C1s) activity was determined according to the method of Okamura et al. (Biochem. Biophys. Acta (1973), volume 295, pages 252-257). […] The values for C1s represent molar concentrations (IC50) of test compounds which inhibit 50% of the activity of C1s to hydrolyze ATEE (acetyltyrosine ethyl ester).

[4] = system: Masugi's nephritis; experiment: Effectiveness in treating Masugi's nephritis (experimental glomerulonephritis), protein in urine; type: in vivo, rat; settings: po, 30 mg/kg
Protocol: […] […] As the index to effectiveness, the protein concentration in urine was determined. That is, when inflammation develops in the kidney, it causes damage to renal tubules, etc., and a resultant increase in protein concentration in urine.

[5] = system: rabbit serum albumin (RSA) nephritis; experiment: Effect of TO-195 on rabbit serum albumin (RSA) nephritis; type: in vivo, rat (Sprague Dawley); settings: oral
Excerpt: About 90% of human glomerular nephritis has been described as being immune complex nephritis which is caused by deposition in the glomeruli of immune complexes formed by the binding of antigens with antibodies in the blood. Effectiveness in treating rabbit serum albumin (RSA) nephritis in rats, which is known as an experimental model of nephritis caused by antigen-antibody reaction (Folia pharmacol. japon, 78: 491-499 (1981)), is shown below:
Sprague Dawley rats were immunized by subcutaneous injection in the back of 3 mg rabbit serum albumin in complete Freud's adjuvant (CFA). Two weeks after the subcutaneous injection, the rats were administered 1 mg of RSA (in saline) into the tail vein every other day for 10 weeks. Seven weeks after the first subcutaneous injection, the rats were also boosted with 3 mg RSA as in the first subcutaneous injection. The control group was injected with saline. Two weeks after the first IV injection, rats with more than 100 mg/day proteinurea after IV administration of RSA were divided into two groups each consisting of five rats. One group was orally given 30 mg/kg of TO-195 (in a suspension in water) twice a day for 20 days. The other group (untreated) and the control group were given distilled water p.o. (oral administration). The index of effectiveness of TO-195 was protein concentration in urine.

[6] = target: thrombin (Homo sapiens, UniProt P00734); experiment: anti-thrombin activity, hydrolysis of TAME (tosylarginine methyl ester); type: biochemical
Protocol: as §1

Sequence of plasmin (P00747 581-810 limits assumed, species assumed): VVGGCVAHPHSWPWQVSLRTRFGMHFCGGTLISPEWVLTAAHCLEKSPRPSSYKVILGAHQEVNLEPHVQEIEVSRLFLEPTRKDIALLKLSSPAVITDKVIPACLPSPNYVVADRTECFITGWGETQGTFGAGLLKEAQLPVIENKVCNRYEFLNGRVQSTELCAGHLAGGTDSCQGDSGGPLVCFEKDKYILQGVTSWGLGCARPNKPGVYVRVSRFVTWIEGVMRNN
Sequence of plasmin (P00747 97-580 partner limits assumed, species assumed): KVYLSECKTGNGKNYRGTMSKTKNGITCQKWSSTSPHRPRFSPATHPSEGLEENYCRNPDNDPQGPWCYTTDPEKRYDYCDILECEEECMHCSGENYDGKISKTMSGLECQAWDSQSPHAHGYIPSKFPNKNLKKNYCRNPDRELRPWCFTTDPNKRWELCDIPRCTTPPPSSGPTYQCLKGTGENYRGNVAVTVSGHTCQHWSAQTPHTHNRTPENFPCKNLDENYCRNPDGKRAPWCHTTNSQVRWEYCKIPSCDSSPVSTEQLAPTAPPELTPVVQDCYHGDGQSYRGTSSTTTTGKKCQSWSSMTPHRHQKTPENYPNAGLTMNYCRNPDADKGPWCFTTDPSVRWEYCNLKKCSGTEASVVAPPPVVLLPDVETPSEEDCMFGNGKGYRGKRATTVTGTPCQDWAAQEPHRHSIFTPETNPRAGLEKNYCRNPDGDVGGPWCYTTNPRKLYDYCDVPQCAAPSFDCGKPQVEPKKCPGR

Cl.N=C(N)c1ccc2cc(OC(=O)c3ccc(CNC(=O)CCCC(=O)O)o3)ccc2c1 [Example 22, 6-Amidino-2-naphthyl 5-(4-carboxybutyrylaminomethyl)furan-2-carboxylate hydrochloride]
IC50 [1]: 430 nM | adverse side effects (in words) [2]: No adverse side effects were found | C1s inhibition (in words) [3]: inhibitor | IC50 ([3]; hydrolysis of ATEE, read-out: Cls: molar concentration inhibiting 50% of C1s activity (IC50)): 250 nM | Protein concentration in urine [4]: 3.0 ± 2.0 mg/mL | Protein concentration in urine ([5]; 30 mg/kg twice a day, 20 days, mean ± standard deviation, five animals, untreated 385.9 ± 187.23, control 8.5 ± 2.62): 152.1 ± 49.11 mg/mL | N-acetyl-β-D-glucosamineidase excretion (in words) ([5]; 30 mg/kg×2/day): decreased | alkaline phosphatase excretion (in words) ([5]; 30 mg/kg×2/day): decreased | urinary protein excretion (in words) ([5]; 30 mg/kg×2/day): decreased urinary protein excretion | thrombin inhibition (in words) [6]: inhibitor | IC50 ([6]; hydrolysis of TAME, read-out: Thr: molar concentration inhibiting 50% of enzyme activity (IC50)): 3500 nM
